Data on five compounds can be found in PubChem BioAssay AID222 (DTP/NCI, 2004).

Where “and” joins values, the source holds several entries; their conditions need not be identical. Equal values may be shown once. Inconclusive results and toxic doses are left out.

In the assay the test system is C57BL/6 mice, intracerebral ependymoblastoma, median survival T/C. The assay can be described thus: NCI In Vivo Anticancer Drug Screen. Data for tumor model Ependymoblastoma (intracerebral) in C57BL/6 mice. The following applies: endpoint: median survival time, higher = longer survival. The procedure:
The antitumor activity of compounds was measured in mice bearing transplantable tumors. Survival or tumor size were measured and the results are expressed as the measurement made in the treated group (T) divided by the measurement made in the vehicle treated control group (C). The tumor model used in this assay is Ependymoblastoma (intracerebral) in C57BL/6 mice

Where [1] appears, read: dose: 0.5 mg/kg/injection, schedule: Q01DX005 (ip), vehicle: Klucel (hydroxypropylcellulose) (HPC).

Turning to `CC[C@]1(O)C[C@H]2CN(CCc3c([nH]c4ccccc34)[C@@](C(=O)OC)(c3cc4c(cc3OC)N(C=O)[C@H]3[C@@](O)(C(=O)OC)[C@H](OC(C)=O)[C@]5(CC)C=CCN6CC[C@]43[C@@H]65)C2)C1`, the T/C runs as follows: (dose: 0.05 mg/kg/injection, schedule: Q01DX005 (ip), vehicle: saline) 108 % of control; (dose: 0.1 mg/kg/injection, schedule: Q01DX005 (ip), vehicle: saline) 103 % of control; (dose: 0.2 mg/kg/injection, schedule: Q01DX005 (ip), vehicle: saline) 105 % of control; (dose: 0.4 mg/kg/injection, schedule: Q01DX005 (ip), vehicle: saline) 124 % of control.

As to `CN(C)C(=O)N(CCCl)N=O`, the T/C was 154 % of control (dose: 16.0 mg/kg/injection, schedule: Q01DX001 (ip), vehicle: other) and 279 % of control (dose: 20.0 mg/kg/injection, schedule: Q01DX001 (ip), vehicle: other).

Consider `O=NN(CCCl)C(=O)NC1CCC(=O)NC1=O` (configuration not stated), for which the T/C was 103 % of control under setting [1]; 118 % of control (dose: 0.5 mg/kg/injection, schedule: Q01DX005 (ip), vehicle: suspension in saline); 100 % of control (dose: 0.62 mg/kg/injection, schedule: Q01DX001 (ip), vehicle: other); 100 % of control (dose: 1.0 mg/kg/injection, schedule: Q01DX005 (ip), vehicle: Klucel (hydroxypropylcellulose) (HPC)); 114 % of control (dose: 1.0 mg/kg/injection, schedule: Q01DX005 (ip), vehicle: suspension in saline); 101 % of control (dose: 1.25 mg/kg/injection, schedule: Q01DX001 (ip), vehicle: other). Further, the T/C by setting is: (dose: 1.75 mg/kg/injection, schedule: Q01DX001 (ip), vehicle: other) 104 % of control; (dose: 2.0 mg/kg/injection, schedule: Q#A X002 (ip), vehicle: saline) 100 % of control and 111 % of control; (dose: 2.5 mg/kg/injection, schedule: Q01DX001 (ip), vehicle: other) 100 % of control; (dose: 3.5 mg/kg/injection, schedule: Q01DX001 (ip), vehicle: other) 102 % of control and 104 % of control; (dose: 3.5 mg/kg/injection, schedule: Q01DX001 (ip), vehicle: saline with Tween-80) 95 % of control; (dose: 4.0 mg/kg/injection, schedule: Q01DX001 (ip), vehicle: saline with Tween-80) 106 % of control. The T/C (dose: 4.0 mg/kg/injection, schedule: Q01DX005 (ip), vehicle: Klucel (hydroxypropylcellulose) (HPC)) is 290 % of control; the T/C (dose: 4.0 mg/kg/injection, schedule: Q01DX005 (ip), vehicle: suspension in saline) is 298 % of control; the T/C (dose: 4.0 mg/kg/injection, schedule: Q#A X002 (ip), vehicle: saline) is 98 % of control and 99 % of control; the T/C (dose: 5.0 mg/kg/injection, schedule: Q01DX001 (ip), vehicle: other) is 119 % of control; the T/C (dose: 5.0 mg/kg/injection, schedule: Q01DX001 (oral), vehicle: other) was 161 % of control; the T/C (dose: 7.0 mg/kg/injection, schedule: Q01DX001 (ip), vehicle: other) is 113 % of control and 119 % of control. For the same compound, the T/C by setting is: (dose: 8.0 mg/kg/injection, schedule: Q01DX001 (ip), vehicle: saline with Tween-80) 106 % of control; (dose: 8.0 mg/kg/injection, schedule: Q01DX005 (ip), vehicle: Klucel (hydroxypropylcellulose) (HPC)) 281 % of control; (dose: 8.0 mg/kg/injection, schedule: Q#A X002 (ip), vehicle: saline) 102 % of control; (dose: 10.0 mg/kg/injection, schedule: Q01DX001 (ip), vehicle: other) 162 % of control; (dose: 10.0 mg/kg/injection, schedule: Q01DX001 (oral), vehicle: other) 210 % of control; (dose: 10.0 mg/kg/injection, schedule: Q07DX003 (ip), vehicle: saline) 318 % of control. The T/C by setting is: (dose: 14.0 mg/kg/injection, schedule: Q01DX001 (ip), vehicle: saline with Tween-80) 102 % of control; (dose: 16.0 mg/kg/injection, schedule: Q01DX001 (ip), vehicle: saline with Tween-80) 104 % of control; (dose: 16.0 mg/kg/injection, schedule: Q01DX001 (oral), vehicle: Klucel (hydroxypropylcellulose) (HPC)) 106 % of control; (dose: 16.0 mg/kg/injection, schedule: Q#A X002 (ip), vehicle: saline) 102 % of control and 112 % of control; (dose: 20.0 mg/kg/injection, schedule: Q01DX001 (oral), vehicle: other) 90 % of control; (dose: 20.0 mg/kg/injection, schedule: Q07DX003 (ip), vehicle: saline) 117 % of control. Also, the T/C was 100 % of control and 103 % of control (dose: 28.0 mg/kg/injection, schedule: Q01DX001 (ip), vehicle: other); 93 % of control (dose: 28.0 mg/kg/injection, schedule: Q01DX001 (ip), vehicle: saline with Tween-80); 105 % of control (dose: 32.0 mg/kg/injection, schedule: Q01DX001 (ip), vehicle: saline with Tween-80); 102 % of control (dose: 32.0 mg/kg/injection, schedule: Q01DX001 (oral), vehicle: Klucel (hydroxypropylcellulose) (HPC)); 100 % of control (dose: 32.0 mg/kg/injection, schedule: Q#A X002 (ip), vehicle: saline); 88 % of control (dose: 56.0 mg/kg/injection, schedule: Q01DX001 (ip), vehicle: other). The T/C reads like this: (dose: 56.0 mg/kg/injection, schedule: Q01DX001 (ip), vehicle: saline with Tween-80) 93 % of control; (dose: 64.0 mg/kg/injection, schedule: Q01DX001 (ip), vehicle: saline with Tween-80) 109 % of control; (dose: 64.0 mg/kg/injection, schedule: Q01DX001 (oral), vehicle: Klucel (hydroxypropylcellulose) (HPC)) 100 % of control; (dose: 128.0 mg/kg/injection, schedule: Q01DX001 (oral), vehicle: Klucel (hydroxypropylcellulose) (HPC)) 102 % of control; (dose: 256.0 mg/kg/injection, schedule: Q01DX001 (oral), vehicle: Klucel (hydroxypropylcellulose) (HPC)) 104 % of control.

With `O=CC(NC(=O)N(CCCl)N=O)C(O)C(O)C(O)CO` (configuration not stated), the T/C by setting is: (dose: 0.12 mg/kg/injection, schedule: Q01DX005 (ip), vehicle: Klucel (hydroxypropylcellulose) (HPC)) 95 % of control; (dose: 0.12 mg/kg/injection, schedule: Q01DX005 (ip), vehicle: saline) 96 % of control and 104 % of control; (dose: 0.13 mg/kg/injection, schedule: Q01DX005 (ip), vehicle: Klucel (hydroxypropylcellulose) (HPC)) 88 % of control; (dose: 0.13 mg/kg/injection, schedule: Q01DX005 (ip), vehicle: saline) 89 % of control and 105 % of control; (dose: 0.25 mg/kg/injection, schedule: Q01DX005 (ip), vehicle: Klucel (hydroxypropylcellulose) (HPC)) 96 % of control and 123 % of control; under setting [1], 97 % of control and 99 % of control. Also, the T/C (dose: 1.0 mg/kg/injection, schedule: Q01DX001 (ip), vehicle: Klucel (hydroxypropylcellulose) (HPC)) was 96 % of control; the T/C (dose: 2.0 mg/kg/injection, schedule: Q01DX001 (ip), vehicle: Klucel (hydroxypropylcellulose) (HPC)) was 100 % of control; the T/C (dose: 4.0 mg/kg/injection, schedule: Q01DX001 (ip), vehicle: Klucel (hydroxypropylcellulose) (HPC)) was 97 % of control; the T/C (dose: 8.0 mg/kg/injection, schedule: Q01DX001 (ip), vehicle: Klucel (hydroxypropylcellulose) (HPC)) was 96 % of control; the T/C (dose: 16.0 mg/kg/injection, schedule: Q01DX001 (ip), vehicle: Klucel (hydroxypropylcellulose) (HPC)) is 114 % of control; the T/C (dose: 32.0 mg/kg/injection, schedule: Q01DX005 (oral), vehicle: saline) was 108 % of control. For the same compound, the T/C reads like this: (dose: 64.0 mg/kg/injection, schedule: Q01DX001 (oral), vehicle: saline) 89 % of control; (dose: 64.0 mg/kg/injection, schedule: Q01DX005 (oral), vehicle: saline) 89 % of control; (dose: 128.0 mg/kg/injection, schedule: Q01DX001 (oral), vehicle: saline) 98 % of control; (dose: 256.0 mg/kg/injection, schedule: Q01DX001 (oral), vehicle: saline) 99 % of control; (dose: 512.0 mg/kg/injection, schedule: Q01DX001 (oral), vehicle: saline) 95 % of control; (dose: 1024.0 mg/kg/injection, schedule: Q01DX001 (oral), vehicle: saline) 99 % of control.

Turning to `COc1ccc(C[C@H](N)C(=O)NC2C(CO)OC(n3cnc4c(N(C)C)ncnc43)C2O)cc1` (some centres not stated), the T/C is, setting by setting: (dose: 20.0 mg/kg/injection, schedule: Q01DX005 (ip), vehicle: saline) 104 % of control; (dose: 40.0 mg/kg/injection, schedule: Q01DX005 (ip), vehicle: saline) 101 % of control.
